Reference: ChEMBL document CHEMBL3045739, “Synthesis and Fungicidal Activity of 6-Alkyl Six-membered Cyclic Thiophosphates” (1997)

What was measured:
Assay type in all cases: functional
Athelia rolfsii [1] = assay: Fungicidal activity against Athelia rolfsii assessed as fungal growth inhibition at 100 ppm by agar dilution method; settings: Agroathelia rolfsii; read-out: GI
Athelia rolfsii [2] = assay: Fungicidal activity against Athelia rolfsii assessed as fungal growth inhibition at 10 ppm by agar dilution method; settings: Agroathelia rolfsii; read-out: GI
Pythium [3] = assay: Fungicidal activity against Pythium sp. assessed as fungal growth inhibition at 100 ppm by agar dilution method; settings: read-out: GI
Pythium [4] = assay: Fungicidal activity against Pythium sp. assessed as fungal growth inhibition at 10 ppm by agar dilution method; settings: read-out: GI

Row | Compound | inhibition of growth at 100 ppm (Athelia rolfsii [1]) | inhibition of growth at 10 ppm (Athelia rolfsii [2]) | inhibition of growth at 100 ppm (Pythium [3]) | inhibition of growth at 10 ppm (Pythium [4])
1 | CC(C)OP(=O)(OC(C)C)SCc1ccccc1 [IPROBENFOS] | 100% | 69% | 89% | 42%
2 | CCCCc1ccc2c(c1)COP(=S)(Oc1ccc(C)cc1C(C)C)O2 (stereo unspecified) | 41% |  | 39% | 
3 | CCOP1(=S)OCc2cc(C(C)C)ccc2O1 (stereo unspecified) | 83% | 45% | 66% | 
4 | CCCc1ccc2c(c1)COP(=S)(OCCc1ccccc1)O2 (stereo unspecified) | 48% |  | 48% | 
5 | CCCc1ccc2c(c1)COP(=S)(Oc1ccc(C)cc1C(C)C)O2 (stereo unspecified) | 27% |  | 3% | 
6 | CCCc1ccc2c(c1)COP(=S)(OCC)O2 (stereo unspecified) | 84% | 63% | 56% | 
7 | CCCCc1ccc2c(c1)COP(=S)(OCC)O2 (stereo unspecified) | 76% |  | 61% | 
8 | COP1(=S)OCc2ccccc2O1 (stereo unspecified) [SALITHION] | 61% |  | 75% | 
9 | CCOP1(=S)OCc2cc(C(C)CC)ccc2O1 (stereo unspecified) | 67% |  | 56% | 
10 | CCOP1(=S)OCc2cc(CC)ccc2O1 (stereo unspecified) | 91% | 66% | 82% | 42%
11 | CCCc1ccc2c(c1)COP(=S)(Oc1cc(C)ccc1C(C)C)O2 (stereo unspecified) | 37% |  | 53% | 
12 | CCCCc1ccc2c(c1)COP(=S)(Oc1cc(C)ccc1C(C)C)O2 (stereo unspecified) | 58% |  | 83% | 23%
